Test results from patent US20240043420A1, “7-AZAINDOLE COMPOUNDS FOR INHIBITION OF BCR-ABL TYROSINE KINASES” (EnLiven Therapeutics, Inc., priority 2020, published 2024).

Legend:
HL60 cells = assay: HL60 cell proliferation assay (CellTiter-Glo); format: cell-based; settings: Homo sapiens, HL-60, 72 h, CellTiter-Glo viability, read-out: Cell Line (IC50, nM) HL60
In short: (§1)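 Cells in IMDM/10% FBS seeded at 2,000 (K562) or 1,500 (HL60) per well, exposed to serially diluted compounds for 72 h at 37 °C, 5% CO2. Viability by CellTiter-Glo luminescence, normalized between DMSO (high) and cell-free media (low) controls.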

ABL1 (T315I) = ABL1 (T315I) (Homo sapiens, UniProt P00519, T315I); assay: Luminescence-based ABL kinase assay (ADP-Glo, 300 μM ATP), T315I mutant; format: biochemical
In short: (§2)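 Buffer: 50 mM HEPES pH 7.5, 10 mM MgCl2, 1 mM EGTA, 2 mM DTT, 0.05% BSA. Compound preincubated 30 min at RT with kinase (3.325 nM in enzyme solution), then started with a Peptide 2 (6 μM) and ATP (1.2 mM) solution, both stock levels; 90 min at RT.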

ABL1 = molecular target: T1, ABL1 (Homo sapiens, UniProt P00519); assay: Luminescence-based ABL kinase assay (ADP-Glo, 300 μM ATP); format: biochemical
T1 construct: purchased Carna Biosciences
In short: as §2

K562 cells = assay: K562 cell proliferation assay (CellTiter-Glo); format: cell-based; settings: Homo sapiens, K562, 72 h, CellTiter-Glo viability, read-out: Cell Line (IC50, nM) K562
In short: as §1

pCRKL in K562 cells = assay: pCRKL ELISA assay in K562 cells; format: cell-based; settings: Homo sapiens, 1.5 h, 90 minutes incubation, read-out: PCRKL ELISA, Cell Line IC50 (nM) K562
Description: K562 or Ba/F3 ABL T315I cells (2.0*10^5 cells/100 μl/well) were seeded in 96 well (Corning, cat #3799). Compounds were dissolved in DMSO, serially diluted in DMSO and then were added, mixed, and incubated for 90 minutes at 37° C., 5% CO2. Following the 90-minute incubation, plates were centrifuged for 5 min at 3000 RPM and supernatant was removed from each well. Cells were washed 3 times with 150 μl PBS prior to addition of 100 μl cell RIPA lysis buffer (Boston BioProducts, cat #BP-115D) supplied with 1×complete ULTRA cocktail inhibitor (Roche, 05892791001) and 1×PhosSTOP Phosphatase Inhibitor Cocktail Tablets (Roche, 04906837001). Cells were incubated with lysis buffer for 1 hour at 4° C. prior to storage at −80 C.
A capture antibody able to detect phosphorylated and non-phosphorylated CRKL (R&D Systems, cat #AF5127) was added to Meso Scale Discovery (MSD) standard bind plates (MSD, cat #L15XA-3) at 5 ug/mL and incubated at 4° C. overnight. The next day, plates were washed with PBS+0.05% Tween20 (PBST) and 150 μl of 5% BSA blocking solution was added for 1 hour at room temperature with shaking. Plates were washed with PBST. Lysates were thawed and 30 μl of lysate was added to the MSD plates and incubated for 2 hours at room temperature with shaking. MSD plates were washed with PBST and 30 μl of a detection antibody that binds phosphorylated pCRKL (R&D Systems, cat #MAB6910) was added at 1 μg/mL to each well. Plates were incubated for 1 hour at room temperature with shaking. Plates were washed with PBST prior to addition of 30 μl of a sulfo tagged goat anti mouse detection antibody (MSD cat #R32AC-1). Plates were incubated for 1 hour at room temperature with shaking. Plates were washed with PBST prior to addition of 150 ul of 1×MSD read buffer T (MSD, cat 4R92TC-2). Electrochemiluminescence (ECLU) was read on an MSD plate reader (Meso Scale Discovery). The remaining activity by calculated as follows: 00 Relative activity=100×(ELCUsample−ECLULC)/(ECLUHC−ECLULC). The low and high controls (LC/HC) are generated from lysate from wells without cells or with cells treated with 0.1% DMSO, respectively. IC50 values were calculated using XLFit software using a nonlinear regression model with a sigmoidal dose response and are shown in Table 4 and Table 5 below.

| IC50 (HL60 cells) | IC50 (ABL1 (T315I)) | IC50 (ABL1) | IC50 (K562 cells) | IC50 (pCRKL in K562 cells) | Structure (SMILES) |
| --- | --- | --- | --- | --- | --- |
| 4040 nM | 6.1 nM | 3.57 nM | 9.36 nM | 278 nM | COc1c(-c2c[nH]c3nc(NC(=O)[C@@H]4C[C@@H]4F)ccc23)cc2scnc2c1F [Compound 133, (1S,2S)-2-fluoro-N-[3-(4-fluoro-5-methoxy-1,3-benzothiazol-6-yl)-1H-pyrrolo[2,3-b]pyridin-6-yl]cyclopropane-1-carboxamide] |
| > 10000 nM | 38.7 nM | 91.5 nM | 603 nM | 702 nM | COc1cccc(F)c1-c1n[nH]c2nc(NC(=O)[C@@H]3C[C@@H]3F)ccc12 [Compound 66, (1S,2S)-2-fluoro-N-[3-(2-fluoro-6-methoxyphenyl)-1H-pyrazolo[3,4-b]pyridin-6-yl]cyclopropane-1-carboxamide] |
| > 10000 nM | 13.7 nM | 8.95 nM | 829 nM | 3120 nM | COc1cc2[nH]cnc2cc1-c1c[nH]c2nc(NC(=O)[C@H]3C[C@H]3F)ccc12 [Compound 52, (1R,2R)-2-fluoro-N-[3-(6-methoxy-1H-1,3-benzodiazol-5-yl)-1H-pyrrolo[2,3-b]pyridin-6-yl]cyclopropane-1-carboxamide] |
| > 10000 nM | 39.8 nM | 23.1 nM | 151 nM | 275 nM | COc1ccccc1-c1n[nH]c2nc(NC(=O)C3CC3)ccc12 [Compound 44, N-[3-(2-methoxyphenyl)-1H-pyrazolo[3,4-b]pyridin-6-yl]cyclopropanecarboxamide] |
| > 10000 nM | 12.7 nM | 45.4 nM | 254 nM | 88.3 nM | COc1ccccc1-c1c[nH]c2nc(NC(=O)NCCN3CCN(C)CC3)ccc12 [Compound 42, 3-[3-(2-methoxyphenyl)-1H-pyrrolo[2,3-b]pyridin-6-yl]-1-[2-(4-methylpiperazin-1-yl)ethyl]urea] |
| > 10000 nM | 44.3 nM | 51.6 nM | 120 nM | 399 nM | COc1ccc(F)c(OC)c1-c1c[nH]c2nc(NC(=O)NCCN3CCN(C)CC3)ccc12 [Compound 145, 3-[3-(3-fluoro-2,6-dimethoxyphenyl)-1H-pyrrolo[2,3-b]pyridin-6-yl]-1-[2-(4-methylpiperazin-1-yl)ethyl]urea] |
| > 10000 nM | 15.8 nM | 24.9 nM | 165 nM | 1210 nM | COc1cccc(OC)c1-c1c[nH]c2nc(NC(=O)NCCN3CCNCC3)ccc12 [Compound 135, 3-[3-(2,6-dimethoxyphenyl)-1H-pyrrolo[2,3-b]pyridin-6-yl]-1-[2-(piperazin-1-yl)ethyl]urea] |
| > 10000 nM | 4.41 nM | 15.4 nM | 668 nM | 1350 nM | COc1c(-c2c[nH]c3nc(NC(=O)[C@H]4C[C@H]4F)ccc23)ccc2[nH]cnc12 [Compound 51, (1R,2R)-2-fluoro-N-[3-(4-methoxy-1H-1,3-benzodiazol-5-yl)-1H-pyrrolo[2,3-b]pyridin-6-yl]cyclopropane-1-carboxamide] |
| > 10000 nM | 32.5 nM | 99.2 nM | 751 nM |  | CCNC(=O)Nc1ccc2c(-c3ccccc3OC)c[nH]c2n1 [Compound 103, 3-ethyl-1-[3-(2-methoxyphenyl)-1H-pyrrolo[2,3-b]pyridin-6-yl]urea] |
| > 10000 nM | 8.81 nM | 6.71 nM | 30.8 nM |  | COc1nccc(OC2CC2)c1-c1c[nH]c2nc(NC(=O)[C@@H]3C[C@H]3OCCN(C)C)ccc12 [Compound 253] |
| > 10000 nM | 25.7 nM | 14.9 nM | 129 nM |  | COc1cc(F)ccc1-c1n[nH]c2nc(NC(=O)[C@@H]3C[C@@H]3F)ccc12 [Compound 99, (1S,2S)-2-fluoro-N-[3-(4-fluoro-2-methoxyphenyl)-1H-pyrazolo[3,4-b]pyridin-6-yl]cyclopropane-1-carboxamide] |
| > 10000 nM | 11.3 nM | 37.9 nM | 101 nM |  | COc1ccccc1-c1c[nH]c2nc(NC(=O)C3CC3)ccc12 [Compound 1, N-(3-(2-methoxyphenyl)-1H-pyrrolo[2,3-b]pyridin-6-yl)cyclopropanecarboxamide] |
| > 10000 nM | 1.74 nM | 1.52 nM | 48.8 nM |  | COc1nc2[nH]cnc2cc1-c1c[nH]c2nc(NC(=O)[C@@H]3C[C@@H]3F)ccc12 [Compound 83, (1S,2S)-2-fluoro-N-(3-[5-methoxy-3H-imidazo[4,5-b]pyridin-6-yl]-1H-pyrrolo[2,3-b]pyridin-6-yl)cyclopropane-1-carboxamide] |
| > 10000 nM | 39.5 nM | 22.2 nM | 104 nM |  | COc1ncc(F)c(OC)c1-c1c[nH]c2nc(NC(=O)[C@H]3C[C@H]3F)ccc12 [Compound 125, (1R,2R)-2-fluoro-N-[3-(5-fluoro-2,4-dimethoxypyridin-3-yl)-1H-pyrrolo[2,3-b]pyridin-6-yl]cyclopropane-1-carboxamide] |
| > 10000 nM | 16.8 nM | 18.6 nM | 1380 nM |  | COc1cc2ncsc2cc1-c1c[nH]c2nc(NC(=O)NCCN3CCNCC3)ccc12 [Compound 139, 3-[3-(5-methoxy-1,3-benzothiazol-6-yl)-1H-pyrrolo[2,3-b]pyridin-6-yl]-1-[2-(piperazin-1-yl)ethyl]urea; bis(formic acid)] |
| 4450 nM | 9.74 nM | 96.6 nM | 202 nM |  | O=C(Nc1ccc2c(-c3cccc(O)c3)c[nH]c2n1)C1CC1 [Compound 13, N-[3-(3-hydroxyphenyl)-1H-pyrrolo[2,3-b]pyridin-6-yl]cyclopropanecarboxamide] |
| > 10000 nM | 2.57 nM | 4.67 nM | 32.2 nM |  | COc1ccc(F)c(OC)c1-c1c[nH]c2nc(NC(=O)[C@@H]3C[C@@H]3F)ccc12 [Compound 119, (1S,2S)-2-fluoro-N-[3-(3-fluoro-2,6-dimethoxyphenyl)-1H-pyrrolo[2,3-b]pyridin-6-yl]cyclopropane-1-carboxamide] |
| > 10000 nM | 12.9 nM | 12.2 nM | 96.2 nM |  | COc1c(-c2c[nH]c3nc(NC(=O)[C@@H]4C[C@@H]4F)ccc23)ccc2cn[nH]c12 [Compound 81, (1S,2S)-2-fluoro-N-(3-(7-methoxy-1H-indazol-6-yl)-1H-pyrrolo[2,3-b]pyridin-6-yl)cyclopropane-1-carboxamide] |
| > 10000 nM | 0.745 nM | 22.1 nM | 100 nM |  | O=C(Nc1ccc2c(-c3c(F)cccc3OC3CC3)c[nH]c2n1)[C@@H]1C[C@@H]1F [Compound 127, (1S,2S)—N-[3-(2-cyclopropoxy-6-fluorophenyl)-1H-pyrrolo[2,3-b]pyridin-6-yl]-2-fluorocyclopropane-1-carboxamide] |
| > 10000 nM | 33.7 nM | 67 nM | 169 nM |  | CNCCCNC(=O)Nc1ccc2c(-c3c(OC)cccc3OC)c[nH]c2n1 [Compound 130, 1-[3-(2,6-dimethoxyphenyl)-1H-pyrrolo[2,3-b]pyridin-6-yl]-3-[3-(methylamino)propyl]urea] |
| > 10000 nM | 27.4 nM | 27.6 nM | 162 nM |  | O=C(Nc1ccc2c(-c3cccnc3OC3CC3)c[nH]c2n1)[C@@H]1C[C@@H]1F [Compound 69, (1S,2S)—N-[3-(2-cyclopropoxypyridin-3-yl)-1H-pyrrolo[2,3-b]pyridin-6-yl]-2-fluorocyclopropane-1-carboxamide] |
